# Reference: patent US11596622B2, “Mazindol treatment for heroin dependence and substance use disorder” (NLS Pharmaceutics AG, priority 2017, dated 2023)
# What was measured:
# 5-HT transporter(h) = biological target: T1, 5-HT transporter(h) (Homo sapiens, UniProt P31645); assay: Radioligand binding, 5-HT transporter (Eurofins CEREP); conditions: 1.0 × 10^−05 M; antagonist radioligand; read-out: percent inhibition of the binding of a radioactively labeled ligand
# T1 construct: Eurofins CEREP
# Description: (§1) Table A discloses mazindol and Met tested at […] and the compound binding calculated as a percent inhibition of the binding of a radioactively labeled ligand specific for each target (Eurofins CEREP, France).
# (§2) An inhibition or stimulation of more than 50% is considered a significant effect of the test compounds. Fifty percent is a common cut-off for further investigation (i.e. determination of IC50 or EC50 values from concentration-response curves).
# (§3) The results are expressed as a percent of control specific binding obtained in the presence of the test compounds:
# (§4) [formula] and as a percent inhibition of control specific binding obtained in the presence of the test compounds: […]
# [1] = biological target: T2, Norepinephrine transporter (h) (Homo sapiens, UniProt P23975); assay: Radioligand binding, norepinephrine transporter (Eurofins CEREP); conditions: 1.0 × 10^−05 M; antagonist radioligand; read-out: percent inhibition of the binding of a radioactively labeled ligand
# T2 construct: Eurofins CEREP
# T2 sequence (P23975 whole entry): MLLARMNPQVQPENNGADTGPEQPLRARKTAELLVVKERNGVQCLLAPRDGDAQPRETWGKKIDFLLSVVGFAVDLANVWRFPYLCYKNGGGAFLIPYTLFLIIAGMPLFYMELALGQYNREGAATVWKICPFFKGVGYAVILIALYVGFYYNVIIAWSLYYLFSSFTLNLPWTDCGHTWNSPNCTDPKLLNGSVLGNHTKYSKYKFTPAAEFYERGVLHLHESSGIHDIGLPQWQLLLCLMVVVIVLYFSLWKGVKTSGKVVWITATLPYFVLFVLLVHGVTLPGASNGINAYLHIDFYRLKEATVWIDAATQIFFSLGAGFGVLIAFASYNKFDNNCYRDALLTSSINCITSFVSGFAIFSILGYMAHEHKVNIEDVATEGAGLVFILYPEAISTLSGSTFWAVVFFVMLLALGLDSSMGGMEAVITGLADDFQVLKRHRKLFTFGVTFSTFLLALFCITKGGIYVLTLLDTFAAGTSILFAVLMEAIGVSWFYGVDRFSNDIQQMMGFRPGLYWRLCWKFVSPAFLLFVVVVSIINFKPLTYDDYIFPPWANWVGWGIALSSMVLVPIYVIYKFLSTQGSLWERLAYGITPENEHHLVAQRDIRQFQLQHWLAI
# Description: as §1
# as §2, with “curves). Tables B and C display the binding profiles for Mazindol and Met.” for “curves).”
# as §3, §4
# C57BL/6J mice = assay: Effect of treatment on the conditioned place preference induced by heroin; format: in vivo; conditions: for Distance travelled in the drug-paired compartment / Distance travelled in the two compartments (Drug + Vehicle) / Distance travelled in the vehicle-paired compartment / Distance travelled, drug-paired minus vehicle-paired compartment / Time spent in the drug-paired compartment / Time spent in the vehicle-paired compartment / Time spent, drug-paired minus vehicle-paired compartment: mean
# Description: Conditioned place preference (CPP) is a widely used procedure for studying the potential addictive effect of drugs. CPP is based upon the tendency of rodents to approach a stimulus that has previously been paired with an incentive state induced by a drug. A drug that induces a CPP may be suspected to present reinforcing effects that could lead to addiction. Numerous addictive drugs, such as opiate agonists or stimulants induce a CPP and a behavioral sensitization.
# The effect of mazindol on place preference was examined in C57BL/6J mice using a method similar to the one used by Schlussman et al. (9).
# The third experiments consisted in examining the effects of mazindol and D-amphetamine (at doses chosen from results of the first part of the study) on the place preference induced by heroin at a dose chosen from results of the second experiment, which was 1.25 mg/kg. Mazindol (0.125, 0.25 and 0.5 mg/kg) and D-amphetamine (0.5 mg/kg) were tested.
# Therefore, it was decided to perform an additional experiment to examine the effects on place preference induced by heroin of mazindol at 1 and 2 mg/kg and of D-amphetamine at 1 mg/kg.
# (§5) Following the habituation session (on day 1), animals (N=72) were pseudo-randomly assigned to two groups, a Control group (N=12) and a Heroin group (N=60), in a way that there was no significant difference between the two groups for the total distance travelled in the apparatus and for the percentage of time spent and the percentage distance travelled in the grey compartment and in the striped compartment.
# Animals received the following treatments immediately before drug sessions: • Control group: vehicle • Heroin group: heroin (1.25 mg/kg)
# (§6) Following the last conditioning session, the Heroin group was pseudo-randomly divided into 5 groups (N=12/group) in a way that there was no significant difference between groups for the total distance travelled in the apparatus and for the percentage of time spent and the percentage distance travelled in the grey compartment and in the striped compartment in habituation session, for the distance travelled in the drug-paired and in the vehicle-paired compartments in conditioning sessions and for the proportion of striped drug-paired compartments.
# Animals received the following treatments before preference session: • Control group: vehicle of mazindol, i.p. 60 min before testing. • Hero group: vehicle of mazindol, i.p. 60 min before testing. • Hero-A 0.5 group: D-amphetamine (0.5 mg/kg), i.p. 30 min before testing. • Hero-Mz 0.125 group: mazindol (0.125 mg/kg), i.p. 60 min before testing. • Hero-Mz 0.25 group: mazindol (0.25 mg/kg), i.p. 60 min before testing. • Hero-Mz 0.5 group: mazindol (0.5 mg/kg), i.p. 60 min before testing.
# as §5, with “three” for “two”, “(N=12),” for “(N=12) and”, “(N=48) and a Mazindol group (N=12),” for “(N=60),”
# Animals received the following treatments before drug sessions: • Control group: vehicle, i.p. immediately before session. • Heroin group: heroin (1.25 mg/kg), i.p. immediately before session. • MAZ 2 group: mazindol (2 mg/kg), i.p. 60 min before session.
# as §6, with “into 4” for “into 5”, “there is” for “there was”, “compartments. […]” for “compartments.”
# [2] = Hero-Mz 0.125: heroin 1.25 mg/kg conditioning, mazindol 0.125 mg/kg i.p. 60 min before preference session
# [3] = Hero-Mz 0.25: heroin 1.25 mg/kg conditioning, mazindol 0.25 mg/kg i.p. 60 min before preference session
# [4] = Hero-Mz 0.5: heroin 1.25 mg/kg conditioning, mazindol 0.5 mg/kg i.p. 60 min before preference session
# [5] = Hero-Mz 1: heroin 1.25 mg/kg conditioning, mazindol 1 mg/kg i.p. 60 min before preference session
# [6] = Hero-Mz 2: heroin 1.25 mg/kg conditioning, mazindol 2 mg/kg i.p. 60 min before preference session
# T1 sequence (P31645 whole entry): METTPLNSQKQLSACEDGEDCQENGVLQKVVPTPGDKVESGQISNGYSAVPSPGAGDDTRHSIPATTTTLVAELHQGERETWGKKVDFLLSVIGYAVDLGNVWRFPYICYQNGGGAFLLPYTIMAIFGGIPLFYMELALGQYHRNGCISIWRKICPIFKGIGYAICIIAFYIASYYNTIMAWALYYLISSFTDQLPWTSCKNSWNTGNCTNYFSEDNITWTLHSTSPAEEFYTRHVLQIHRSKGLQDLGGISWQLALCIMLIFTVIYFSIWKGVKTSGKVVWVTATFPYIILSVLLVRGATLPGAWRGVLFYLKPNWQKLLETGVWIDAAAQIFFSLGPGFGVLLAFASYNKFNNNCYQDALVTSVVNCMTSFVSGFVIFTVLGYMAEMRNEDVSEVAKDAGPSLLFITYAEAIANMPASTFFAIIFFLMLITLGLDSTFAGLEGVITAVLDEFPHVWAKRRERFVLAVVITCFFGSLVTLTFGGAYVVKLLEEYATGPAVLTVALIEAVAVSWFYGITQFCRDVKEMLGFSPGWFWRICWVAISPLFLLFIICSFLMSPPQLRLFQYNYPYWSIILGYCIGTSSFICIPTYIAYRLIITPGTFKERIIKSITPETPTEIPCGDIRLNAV
smiles,measurement,setting,value
"OC1(c2ccc(Cl)cc2)c2ccccc2C2=NCCN21 (stereo not drawn) [Mazindol, 5-(4-chlorophenyl)-2,5-dihydro-3 H-imadazo[2,1-a]isoindol-5-ol]",inhibition at 10 µM,5-HT transporter(h),99.5%
same,inhibition at 10 µM,[1],100%
same,Distance travelled in the drug-paired compartment,C57BL/6J mice; [2],5623.8 cm
same,Distance travelled in the two compartments (Drug + Vehicle),C57BL/6J mice; [2],9800.4 cm
same,Distance travelled in the vehicle-paired compartment,C57BL/6J mice; [2],4176.5 cm
same,"Distance travelled, drug-paired minus vehicle-paired compartment",C57BL/6J mice; [2],1447.3 cm
same,Time spent in the drug-paired compartment,C57BL/6J mice; [2],1105.7 s
same,Time spent in the vehicle-paired compartment,C57BL/6J mice; [2],694.3 s
same,"Time spent, drug-paired minus vehicle-paired compartment",C57BL/6J mice; [2],411.3 s
same,Distance travelled in the drug-paired compartment,C57BL/6J mice; [3],5092.1 cm
same,Distance travelled in the two compartments (Drug + Vehicle),C57BL/6J mice; [3],9390.5 cm
same,Distance travelled in the vehicle-paired compartment,C57BL/6J mice; [3],4298.4 cm
same,"Distance travelled, drug-paired minus vehicle-paired compartment",C57BL/6J mice; [3],793.8 cm
same,Time spent in the drug-paired compartment,C57BL/6J mice; [3],933.9 s
same,Time spent in the vehicle-paired compartment,C57BL/6J mice; [3],866.1 s
same,"Time spent, drug-paired minus vehicle-paired compartment",C57BL/6J mice; [3],67.8 s
same,Distance travelled in the drug-paired compartment,C57BL/6J mice; [4],4411.7 cm
same,Distance travelled in the two compartments (Drug + Vehicle),C57BL/6J mice; [4],8164.5 cm
same,Distance travelled in the vehicle-paired compartment,C57BL/6J mice; [4],3752.8 cm
same,"Distance travelled, drug-paired minus vehicle-paired compartment",C57BL/6J mice; [4],659.0 cm
same,Time spent in the drug-paired compartment,C57BL/6J mice; [4],965.1 s
same,Time spent in the vehicle-paired compartment,C57BL/6J mice; [4],834.9 s
same,"Time spent, drug-paired minus vehicle-paired compartment",C57BL/6J mice; [4],130.1 s
same,Distance travelled in the drug-paired compartment,C57BL/6J mice; [5],5464.5 cm
same,Distance travelled in the two compartments (Drug + Vehicle),C57BL/6J mice; [5],9746.4 cm
same,Distance travelled in the vehicle-paired compartment,C57BL/6J mice; [5],4281.9 cm
same,"Distance travelled, drug-paired minus vehicle-paired compartment",C57BL/6J mice; [5],1182.6 cm
same,Time spent in the drug-paired compartment,C57BL/6J mice; [5],1086.0 s
same,Time spent in the vehicle-paired compartment,C57BL/6J mice; [5],714.0 s
same,"Time spent, drug-paired minus vehicle-paired compartment",C57BL/6J mice; [5],372.0 s
same,Distance travelled in the drug-paired compartment,C57BL/6J mice; [6],7038.9 cm
same,Distance travelled in the two compartments (Drug + Vehicle),C57BL/6J mice; [6],12086.8 cm
same,Distance travelled in the vehicle-paired compartment,C57BL/6J mice; [6],5047.9 cm
same,"Distance travelled, drug-paired minus vehicle-paired compartment",C57BL/6J mice; [6],1990.9 cm
same,Time spent in the drug-paired compartment,C57BL/6J mice; [6],1089.7 s
same,Time spent in the vehicle-paired compartment,C57BL/6J mice; [6],710.3 s
same,"Time spent, drug-paired minus vehicle-paired compartment",C57BL/6J mice; [6],379.3 s
same,effect on the heroin-induced increases of distance travelled and of time spent in the drug-paired compartment,C57BL/6J mice; mazindol 0.125 mg,had no significant effect
same,effect on the heroin-induced increase of time spent in the drug-paired compartment,C57BL/6J mice; mazindol 0.25 mg/kg,Tended to reduce
same,effect on the heroin-induced increase of the difference of distance travelled in the drug-paired vs. vehicle-paired compartment,"C57BL/6J mice; mazindol 0.25 mg/kg, effect partial",Significantly reduced
same,effect on the heroin-induced increase of the difference of distance travelled in the drug-paired vs. vehicle-paired compartment,C57BL/6J mice; mazindol 0.5 mg/kg,Significantly antagonized
same,effect on the heroin-induced increase of time spent in the drug-paired compartment,C57BL/6J mice; mazindol 0.5 mg/kg,Tended to reduce
same,effect on the heroin-induced increase of the difference of distance travelled in the drug-paired vs. vehicle-paired compartment,C57BL/6J mice; mazindol 1 mg/kg,Did not significantly reduce
same,effect on the heroin-induced increase of time spent in the drug-paired compartment,C57BL/6J mice; mazindol 1 mg/kg,Did not significantly modify
same,effect on the heroin-induced increases of distance travelled and of time spent in the drug-paired compartment,C57BL/6J mice; mazindol 2 mg,had no significant effect
same,effect on the place preference induced by heroin,"C57BL/6J mice; mazindol 0.125, 1 and 2 mg/kg i.p. before preference session",did not induce effects suggesting a decrease of the place preference induced by heroin
same,"locomotor activity (total distance travelled, FIG. 3)",C57BL/6J mice; mazindol 0.125-2 mg/kg i.p. before preference session,decreased locomotor activity at all doses tested except 2 mg/kg
same,effect on the place preference induced by heroin,"C57BL/6J mice; mazindol 0.25, 0.5 mg/kg i.p. before preference session",decreased the place preference induced by heroin
